Data on 26 molecules can be found in US10336762B2 (priority 2017, dated 2019).

One may read the EC50 as the concentration needed to bring the measured effect to its halfway point. As usually defined, the IC50 is the midpoint of a concentration-inhibition curve.

One assay concerns TNFα. Nature of the assay: cells. Type of assay: cell-based, human. Conditions: Homo sapiens, Monocyte, LPS-stimulated human monocytes, TNFα content; read-out: EC50 TNF.
A further assay addresses IRAK4 enzyme (Homo sapiens (Human), UniProt Q9NWZ3). Nature of the assay: biochemical. Type of assay: biochemical. To be noted: IRAK4 enzyme, TR-FRET (HTRF), 500 μM ATP.

Chain of IRAK4 enzyme (Q9NWZ3 whole entry): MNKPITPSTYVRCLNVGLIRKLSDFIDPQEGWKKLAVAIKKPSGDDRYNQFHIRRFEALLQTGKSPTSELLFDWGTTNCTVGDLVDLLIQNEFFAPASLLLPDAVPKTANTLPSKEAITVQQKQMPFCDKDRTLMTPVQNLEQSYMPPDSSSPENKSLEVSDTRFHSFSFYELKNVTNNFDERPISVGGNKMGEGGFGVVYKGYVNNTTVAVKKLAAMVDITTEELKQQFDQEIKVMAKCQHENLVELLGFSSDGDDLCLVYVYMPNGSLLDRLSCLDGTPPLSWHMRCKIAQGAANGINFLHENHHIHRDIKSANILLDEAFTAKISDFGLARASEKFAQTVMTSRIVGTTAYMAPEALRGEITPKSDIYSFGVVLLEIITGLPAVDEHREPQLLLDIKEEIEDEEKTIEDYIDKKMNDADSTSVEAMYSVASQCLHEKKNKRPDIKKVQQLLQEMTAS

Consider `CC(C)(O)[C@H](F)CNC(=O)c1cnc(-c2ccc3cc(C#N)cnn23)cc1Nc1ccccc1` [Example 589, (R)-6-(3-cyanopyrrolo[1,2-b]pyridazin-7-yl)-N-(2-fluoro-3-hydroxy-3-methylbutyl)-4-(phenylamino)nicotinamide], for which, in the assay with TNFα, the EC50 worked out at 95 nM. Also, the IC50 on IRAK4 enzyme was below 1 nM.
`COc1ncc(Nc2cc(-c3ccc4cc(C#N)cnn34)ncc2C(=O)NC[C@@H](F)C(C)(C)O)cn1` [Example 590, (R)-6-(3-cyanopyrrolo[1,2-b]pyridazin-7-yl)-N-(2-fluoro-3-hydroxy-3-methylbutyl)-4-((2-methoxypyrimidin-5-yl)amino)nicotinamide]: the EC50 in the assay with TNFα was 38 nM. At IRAK4 enzyme, this molecule displayed an IC50 below 1 nM.
For `CC(C)(O)[C@H](F)CNC(=O)c1cnc(-c2ccc3cc(C#N)cnn23)cc1Nc1ccnc(F)c1` [Example 591, (R)-6-(3-cyanopyrrolo[1,2-b]pyridazin-7-yl)-N-(2-fluoro-3-hydroxy-3-methylbutyl)-4-((2-fluoro-pyridin-4-yl)amino) nicotinamide], in that order: 180 nM and 2 nM.
`CC(C)(O)[C@H](F)CNC(=O)c1cnc(-c2ccc3cc(C#N)cnn23)cc1Nc1cncc(C(N)=O)c1` [Example 592, (R)-4-((5-carbamoyl-pyridin-3-yl)amino)-6-(3-cyanopyrrolo[1,2-b]pyridazin-7-yl)-N-(2-fluoro-3-hydroxy-3-methylbutyl) nicotinamide]: the EC50 in the assay with TNFα is 222 nM. Also, inhibition on IRAK4 enzyme was half-maximal at 1 nM (IC50).
For `CC(C)(O)[C@H](F)CNC(=O)c1cnc(-c2ccc3cc(C#N)cnn23)cc1Nc1ccncc1` [Example 593, (R)-6-(3-cyano-pyrrolo[1,2-b]pyridazin-7-yl)-N-(2-fluoro-3-hydroxy-3-methylbutyl)-4-(pyridin-4-ylamino) nicotinamide], in that order: 143 nM and 2 nM.
In the case of `COC(=O)c1cncc(Nc2cc(-c3ccc4cc(C#N)cnn34)ncc2C(=O)NC[C@@H](F)C(C)(C)O)c1` [Example 594, (R)-methyl 5-((2-(3-cyanopyrrolo[1,2-b]pyridazin-7-yl)-5-((2-fluoro-3-hydroxy-3-methylbutyl)carbamoyl)pyridin-4-yl)amino) nicotinate], in the assay on TNFα, the EC50 was determined as 316 nM. The molecule also returned an IC50 at IRAK4 enzyme of 2 nM.
On to `Cc1ncc(Nc2cc(-c3ccc4cc(C#N)cnn34)ncc2C(=O)NC[C@@H](F)C(C)(C)O)cn1` [Example 595, (R)-6-(3-cyano-pyrrolo[1,2-b]pyridazin-7-yl)-N-(2-fluoro-3-hydroxy-3-methylbutyl)-4-((2-methylpyrimidin-5-yl)amino)nicotinamide], for which the EC50 in the assay with TNFα worked out at 107 nM. The molecule further came in with an IC50 on IRAK4 enzyme below 1 nM.
As for `CC(C)(O)[C@H](F)CNC(=O)c1cnc(-c2ccc3cc(C#N)cnn23)cc1Nc1cnc(C#N)nc1` [Example 596, (R)-4-((2-cyano-pyrimidin-5-yl)amino)-6-(3-cyanopyrrolo[1,2-b]pyridazin-7-yl)-N-(2-fluoro-3-hydroxy-3-methylbutyl) nicotinamide], the EC50 with TNFα was above 10000 nM. For the same molecule, at IRAK4 enzyme, the IC50 is 3 nM.
Regarding `CC(C)(O)[C@H](F)CNC(=O)c1cnc(-c2ccc3cc(C#N)cnn23)cc1Nc1ccc(OC(F)F)nc1` [Example 597, (R)-6-(3-cyano-pyrrolo[1,2-b]pyridazin-7-yl)-4-((6-(difluoro-methoxy)pyridin-3-yl)amino)-N-(2-fluoro-3-hydroxy-3-methylbutyl) nicotinamide], in the assay with TNFα, the EC50 is 106 nM. The same molecule had an IC50 against IRAK4 enzyme of 1 nM.
Consider `COc1cc(Nc2cc(-c3ccc4cc(C#N)cnn34)ncc2C(=O)NC[C@@H](F)C(C)(C)O)ccn1` [Example 598, (R)-6-(3-cyano-pyrrolo[1,2-b]pyridazin-7-yl)-N-(2-fluoro-3-hydroxy-3-methyl-butyl)-4-((2-methoxy-pyridin-4-yl)amino) nicotinamide], for which the EC50 with TNFα stood at 106 nM. Further, the IC50 against IRAK4 enzyme was below 1 nM.
For `CC(C)(O)[C@H](F)CNC(=O)c1cnc(-c2ccc3cc(C#N)cnn23)cc1Nc1ccc(F)nc1` [Example 599, (R)-6-(3-cyano-pyrrolo[1,2-b]pyridazin-7-yl)-N-(2-fluoro-3-hydroxy-3-methylbutyl)-4-((6-fluoro-pyridin-3-yl)amino) nicotinamide], in that order: 68 nM and below 1 nM.
For `CC(C)(O)[C@H](F)CNC(=O)c1cnc(-c2ccc3cc(C#N)cnn23)cc1Nc1cncc(F)c1` [Example 600, (R)-6-(3-cyano-pyrrolo[1,2-b]pyridazin-7-yl)-N-(2-fluoro-3-hydroxy-3-methylbutyl)-4-((5-fluoropyridin-3-yl)amino)nicotinamide], in that order: 72 nM and below 1 nM.
For `CC(C)(O)[C@H](F)CNC(=O)c1cnc(-c2ccc3cc(C#N)cnn23)cc1Nc1ccc(C(N)=O)nc1` [Example 601, (R)-5-((2-(3-cyano-pyrrolo[1,2-b]pyridazin-7-yl)-5-((2-fluoro-3-hydroxy-3-methylbutyl)carbamoyl)pyridin-4-yl)amino) picolinamide], in that order: 64 nM and below 1 nM.
As to `COc1ccc(Nc2cc(-c3ccc4cc(C#N)cnn34)ncc2C(=O)NC[C@@H](F)C(C)(C)O)cn1` [Example 602, (R)-6-(3-cyanopyrrolo[1,2-b]pyridazin-7-yl)-N-(2-fluoro-3-hydroxy-3-methylbutyl)-4-((6-methoxy-pyridin-3-yl)amino) nicotinamide], the EC50 with TNFα amounted to 70 nM. The half-maximal inhibitory concentration (IC50) at IRAK4 enzyme was below 1 nM.
Take `CC(C)(O)[C@H](F)CNC(=O)c1cnc(-c2ccc3cc(C#N)cnn23)cc1Nc1ccc(C#N)nc1` [Example 603, (R)-4-((6-cyanopyridin-3-yl)amino)-6-(3-cyano-pyrrolo[1,2-b]pyridazin-7-yl)-N-(2-fluoro-3-hydroxy-3-methylbutyl)nicotinamide]: the EC50 with TNFα amounted to 81 nM. At IRAK4 enzyme, this molecule came in with an IC50 of 1 nM.
For `COc1cc(Nc2cc(-c3ccc4cc(C#N)cnn34)ncc2C(=O)NC[C@@H](F)C(C)(C)O)ccc1C(N)=O` [Example 604, (R)-4-((4-carbamoyl-3-methoxyphenyl)amino)-6-(3-cyanopyrrolo[1,2-b]pyridazin-7-yl)-N-(2-fluoro-3-hydroxy-3-methylbutyl)nicotinamide], in that order: 283 nM and 7 nM.
As to `COc1cncc(Nc2cc(-c3ccc4cc(C#N)cnn34)ncc2C(=O)NC[C@@H](F)C(C)(C)O)c1` [Example 605, (R)-6-(3-cyanopyrrolo[1,2-b]pyridazin-7-yl)-N-(2-fluoro-3-hydroxy-3-methyl-butyl)-4-((5-methoxy-pyridin-3-yl)amino) nicotinamide], the EC50 in the assay with TNFα amounted to 24 nM. Further, the IC50 against IRAK4 enzyme is below 1 nM.
Take `COc1cccc(Nc2cc(-c3ccc4cc(C#N)cnn34)ncc2C(=O)NC[C@@H](F)C(C)(C)O)c1` [Example 606, (R)-6-(3-cyanopyrrolo[1,2-b]pyridazin-7-yl)-N-(2-fluoro-3-hydroxy-3-methylbutyl)-4-((3-methoxyphenyl)amino) nicotinamide]: in the assay on TNFα, the EC50 came out at 33 nM. At IRAK4 enzyme, this molecule yielded an IC50 of 1 nM.
In the case of `CC(C)(O)[C@H](F)CNC(=O)c1cnc(-c2ccc3cc(C#N)cnn23)cc1Nc1cccc(OC(F)F)c1` [Example 608, (R)-6-(3-cyanopyrrolo[1,2-b]pyridazin-7-yl)-4-((3-(difluoromethoxy)phenyl)amino)-N-(2-fluoro-3-hydroxy-3-methylbutyl) nicotinamide], the EC50 with TNFα came to 123 nM. The same molecule yielded an IC50 on IRAK4 enzyme of 1 nM.
As for `COc1ccc(Nc2cc(-c3ccc4cc(C#N)cnn34)ncc2C(=O)NC[C@@H](F)C(C)(C)O)cc1` [Example 609, (R)-6-(3-cyanopyrrolo[1,2-b]pyridazin-7-yl)-N-(2-fluoro-3-hydroxy-3-methylbutyl)-4-((4-methoxyphenyl)amino) nicotinamide], in the assay with TNFα, the EC50 came out at 35 nM. At IRAK4 enzyme, the IC50 is below 1 nM.
Consider `CC(C)(O)[C@H](F)CNC(=O)c1cnc(-c2ccc3cc(C#N)cnn23)cc1Nc1cncc(C#N)c1` [Example 610, (R)-4-((5-cyanopyridin-3-yl)amino)-6-(3-cyano-pyrrolo[1,2-b]pyridazin-7-yl)-N-(2-fluoro-3-hydroxy-3-methylbutyl)nicotinamide], for which, in the assay with TNFα, the EC50 amounted to 50 nM. Also, the IC50 against IRAK4 enzyme is below 1 nM.
In the case of `COc1cc(Nc2cc(-c3ccc4cc(C#N)cnn34)ncc2C(=O)NC[C@@H](F)C(C)(C)O)ccc1C#N` [Example 611, (R)-4-((4-cyano-3-methoxy-phenyl)amino)-6-(3-cyanopyrrolo[1,2-b]pyridazin-7-yl)-N-(2-fluoro-3-hydroxy-3-methylbutyl)nicotinamide], the EC50 in the assay with TNFα was above 10000 nM. Moreover, at IRAK4 enzyme, the IC50 came to 15 nM.
As to `CC1(Nc2cc(-c3ccc4cc(C#N)cnn34)ncc2C(=O)NCC#N)COC1` [Example 612, N-(cyanomethyl)-6-(3-cyanopyrrolo[1,2-b]pyridazin-7-yl)-4-((3-methyloxetan-3-yl)amino)nicotinamide], in the assay with TNFα, the EC50 is 51 nM. Also, on IRAK4 enzyme, the IC50 was below 1 nM.
With `COC(=O)NC[C@H]1C[C@H](Nc2cc(-c3ccc4cc(C#N)cnn34)ncc2C(=O)NCC#N)C1` [Example 613, methyl (((1r,3r)-3-((5-((cyanomethyl)carbamoyl)-2-(3-cyanopyrrolo[1,2-b]pyridazin-7-yl)pyridin-4-yl)amino)cyclobutyl)methyl)carbamate], in the assay with TNFα, the EC50 is 15 nM. The IC50 against IRAK4 enzyme was below 1 nM.
Take `CC(C)(O)[C@H](F)CNC(=O)c1cnc(-c2ccc3cc(C#N)cnn23)cc1N[C@H]1C[C@H](CNC(=O)C2CCO2)C1` (stereo partly shown) [Example 614]: in the assay with TNFα, the EC50 came to 156 nM. At IRAK4 enzyme, the IC50 came to 2 nM.
On to `COC(=O)N[C@H]1C[C@H](CNc2cc(-c3ccc4cc(C#N)cnn34)ncc2C(=O)NC[C@@H](F)C(C)(C)O)C1` [Example 615, methyl ((1R,3r)-3-(((2-(3-cyanopyrrolo[1,2-b]pyridazin-7-yl)-5-(((R)-2-fluoro-3-hydroxy-3-methylbutyl)carbamoyl)pyridin-4-yl)amino)methyl)cyclobutyl)carbamate], for which the EC50 in the assay with TNFα was found to be 46 nM. At IRAK4 enzyme, this molecule showed an IC50 below 1 nM.
